Measured values taken from publication PMC5218480 (PLoS ONE, 2017).

Test system: MV-4-11 cells
Assay: Gene expression microarray analysis (Affymetrix PrimeView) and GSEA
Type: cell-based, human
Set-up: RFU PODN (11730768_x_at) / Fold change /veh PODN (11730768_x_at) / RFU LINC00158 (11744669_a_at) / Fold change /veh LINC00158 (11744669_a_at) / RFU DUSP10 (11751237_a_at) / Fold change /veh DUSP10 (11751237_a_at) / RFU ID3 (11757404_x_at) / Fold change /veh ID3 (11757404_x_at) / RFU PLEKHG5 (11737974_s_at) / Fold change /veh PLEKHG5 (11737974_s_at) / RFU LRRC4B (11730491_at) / Fold change /veh LRRC4B (11730491_at) / RFU GIMAP4 (11747438_a_at) / Fold change /veh GIMAP4 (11747438_a_at) / RFU KRT8 (11758183_x_at) / Fold change /veh KRT8 (11758183_x_at) / RFU CNN1 (11734310_a_at) / Fold change /veh CNN1 (11734310_a_at) / RFU VPS37D (11726825_at) / Fold change /veh VPS37D (11726825_at) / RFU C10orf10 (11716522_x_at) / Fold change /veh C10orf10 (11716522_x_at) / RFU KIR2DL2 /// KIR2DL4 /// KIR2DL5A /// KIR2DL5B /// KIR2DS1 /// KIR2DS2 /// KIR2DS3 /// KIR2DS4 /// KIR3DL3 /// KIR3DL3 /// KIR3DS1 (11738374_at) / Fold change /veh KIR2DL2 /// KIR2DL4 /// KIR2DL5A /// KIR2DL5B /// KIR2DS1 /// KIR2DS2 /// KIR2DS3 /// KIR2DS4 /// KIR3DL3 /// KIR3DL3 /// KIR3DS1 (11738374_at) / RFU C1QL1 (11718748_at) / Fold change /veh C1QL1 (11718748_at) / RFU TMPRSS4 (11747572_a_at) / Fold change /veh TMPRSS4 (11747572_a_at) / RFU HAMP (11756126_x_at) / Fold change /veh HAMP (11756126_x_at) / RFU RNFT2 (11725882_a_at) / Fold change /veh RNFT2 (11725882_a_at) / RFU NR4A2 (11747474_a_at) / Fold change /veh NR4A2 (11747474_a_at) / RFU ABCC12 (11746883_a_at) / Fold change /veh ABCC12 (11746883_a_at) / RFU TMEM136 (11760407_x_at) / Fold change /veh TMEM136 (11760407_x_at) / RFU CLDN22 /// WWC2 (11732394_at) / Fold change /veh CLDN22 /// WWC2 (11732394_at) / RFU HLA-DPB1 (11760878_x_at) / Fold change /veh HLA-DPB1 (11760878_x_at) / RFU SPINT1 (11716480_a_at) / Fold change /veh SPINT1 (11716480_a_at) / RFU GAP43 (11754022_s_at) / Fold change /veh GAP43 (11754022_s_at) / RFU A4GNT (11735810_at) / Fold change /veh A4GNT (11735810_at) / RFU PRB3 (11715151_x_at) / Fold change /veh PRB3 (11715151_x_at) / RFU TUBB4B (11761932_at) / Fold change /veh TUBB4B (11761932_at) / RFU CAPN14 (11732068_a_at) / Fold change /veh CAPN14 (11732068_a_at) / RFU TMCC2 (11721928_a_at) / Fold change /veh TMCC2 (11721928_a_at) / RFU IRGQ (11745062_a_at) / Fold change /veh IRGQ (11745062_a_at) / RFU FAM174B (11720279_a_at) / Fold change /veh FAM174B (11720279_a_at) / RFU TMPRSS4 (11748680_a_at) / Fold change /veh TMPRSS4 (11748680_a_at) / RFU FAM212B (11763350_a_at) / Fold change /veh FAM212B (11763350_a_at) / RFU PLEKHG5 (11743358_a_at) / Fold change /veh PLEKHG5 (11743358_a_at) / RFU ZSCAN30 (11745921_a_at) / Fold change /veh ZSCAN30 (11745921_a_at) / RFU CMKLR1 (11741424_a_at) / Fold change /veh CMKLR1 (11741424_a_at) / RFU LOC101060620 /// MAPK8IP1 (11723275_at) / Fold change /veh LOC101060620 /// MAPK8IP1 (11723275_at) / RFU SPTSSB (11747773_x_at) / Fold change /veh SPTSSB (11747773_x_at) / RFU PRSS12 (11739890_at) / Fold change /veh PRSS12 (11739890_at) / RFU BIN1 (11741810_x_at) / Fold change /veh BIN1 (11741810_x_at) / RFU WNT11 (11732464_a_at) / Fold change /veh WNT11 (11732464_a_at) / RFU C10orf10 (11716521_a_at) / Fold change /veh C10orf10 (11716521_a_at) / RFU C5orf56 (11738089_at) / Fold change /veh C5orf56 (11738089_at) / RFU CYB561 (11721691_x_at) / Fold change /veh CYB561 (11721691_x_at) / RFU ANKRD19P (11752326_a_at) / Fold change /veh ANKRD19P (11752326_a_at) / RFU OR2T12 /// OR2T33 /// OR2T8 (11738714_s_at) / Fold change /veh OR2T12 /// OR2T33 /// OR2T8 (11738714_s_at) / RFU VCAN (11748164_a_at) / Fold change /veh VCAN (11748164_a_at) / RFU JSRP1 (11732532_at) / Fold change /veh JSRP1 (11732532_at) / RFU KRTAP10-11 (11738290_x_at) / Fold change /veh KRTAP10-11 (11738290_x_at) / RFU MYO3A (11730013_a_at) / Fold change /veh MYO3A (11730013_a_at) / RFU EBF3 (11725865_a_at) / Fold change /veh EBF3 (11725865_a_at) / RFU CAMK2N1 (11719241_x_at) / Fold change /veh CAMK2N1 (11719241_x_at) / RFU C5orf56 (11738088_a_at) / Fold change /veh C5orf56 (11738088_a_at) / RFU OLFML3 (11715873_a_at) / Fold change /veh OLFML3 (11715873_a_at) / RFU LOC100653217 /// NTM (11731650_a_at) / Fold change /veh LOC100653217 /// NTM (11731650_a_at) / RFU MAPK11 (11762145_a_at) / Fold change /veh MAPK11 (11762145_a_at) / RFU FIZ1 (11724087_x_at) / Fold change /veh FIZ1 (11724087_x_at) / RFU OASL (11726364_x_at) / Fold change /veh OASL (11726364_x_at) / RFU SOX15 (11748057_x_at) / Fold change /veh SOX15 (11748057_x_at) / RFU CD79A (11719716_a_at) / Fold change /veh CD79A (11719716_a_at) / RFU HIST1H1D (11736915_at) / Fold change /veh HIST1H1D (11736915_at) / RFU CASKIN2 (11723855_a_at) / Fold change /veh CASKIN2 (11723855_a_at) / RFU LOC730098 (11760151_x_at) / Fold change /veh LOC730098 (11760151_x_at) / RFU OR4N2 (11742367_at) / Fold change /veh OR4N2 (11742367_at) / RFU PRRT2 (11749266_a_at) / Fold change /veh PRRT2 (11749266_a_at) / RFU SNX32 (11753110_a_at) / Fold change /veh SNX32 (11753110_a_at) / RFU CDHR5 (11726645_a_at) / Fold change /veh CDHR5 (11726645_a_at) / RFU RCAN1 (11760418_a_at) / Fold change /veh RCAN1 (11760418_a_at) / RFU FAM167A (11723789_a_at) / Fold change /veh FAM167A (11723789_a_at) / RFU FAM26E (11764081_at) / Fold change /veh FAM26E (11764081_at) / RFU ISYNA1 (11749810_s_at) / Fold change /veh ISYNA1 (11749810_s_at) / RFU ACY1 (11761880_at) / Fold change /veh ACY1 (11761880_at) / RFU 11764098_at / Fold change /veh 11764098_at / RFU SAMD14 (11745864_x_at) / Fold change /veh SAMD14 (11745864_x_at) / RFU NPB (11741838_a_at) / Fold change /veh NPB (11741838_a_at) / RFU TMPRSS6 (11731388_a_at) / Fold change /veh TMPRSS6 (11731388_a_at) / RFU KRTAP10-2 (11738614_at) / Fold change /veh KRTAP10-2 (11738614_at) / RFU ARHGAP8 /// PRR5-ARHGAP8 (11727945_x_at) / Fold change /veh ARHGAP8 /// PRR5-ARHGAP8 (11727945_x_at) / RFU KRTAP5-7 /// NADSYN1 (11734609_at) / Fold change /veh KRTAP5-7 /// NADSYN1 (11734609_at) / RFU RASL12 (11751679_a_at) / Fold change /veh RASL12 (11751679_a_at) / RFU CDKN2B (11736163_a_at) / Fold change /veh CDKN2B (11736163_a_at) / RFU PRF1 (11729649_at) / Fold change /veh PRF1 (11729649_at) / RFU, ZNF638 /// ZNF638-IT1 / Fold change vs veh, ZNF638 /// ZNF638-IT1 / RFU, PANK3 / Fold change vs veh, PANK3 / RFU, SH3YL1 / Fold change vs veh, SH3YL1 / RFU, ZEB2 / Fold change vs veh, ZEB2 / RFU, NRIP1 / Fold change vs veh, NRIP1 / RFU, PTTG1IP / Fold change vs veh, PTTG1IP / RFU, CAPN2 / Fold change vs veh, CAPN2 / RFU, MED14 / Fold change vs veh, MED14 / RFU, SNORA58 / Fold change vs veh, SNORA58 / RFU, C1orf63 / Fold change vs veh, C1orf63 / RFU, LRRFIP1 / Fold change vs veh, LRRFIP1 / RFU, NDUFAF7 / Fold change vs veh, NDUFAF7 / RFU, SLC12A2 / Fold change vs veh, SLC12A2 / RFU, IBTK / Fold change vs veh, IBTK / RFU, ESF1 / Fold change vs veh, ESF1 / Fold change vs veh, TMEM50B / RFU, TAOK1 / Fold change vs veh, TAOK1 / RFU, ACBD3 / Fold change vs veh, ACBD3 / RFU, TMA16 / Fold change vs veh, TMA16 / RFU, RWDD3 / Fold change vs veh, RWDD3 / RFU, BCAT1 / Fold change vs veh, BCAT1 / RFU, EDEM3 / Fold change vs veh, EDEM3 / RFU, TMEM33 / Fold change vs veh, TMEM33 / RFU, WDR75 / Fold change vs veh, WDR75 / RFU, AHCTF1 / Fold change vs veh, AHCTF1 / RFU, TFRC / Fold change vs veh, TFRC / RFU, ZDHHC17 / Fold change vs veh, ZDHHC17 / RFU, NOM1 / Fold change vs veh, NOM1 / RFU, ARL8B / Fold change vs veh, ARL8B / RFU, ZBTB11 / Fold change vs veh, ZBTB11 / RFU, TAMM41 / Fold change vs veh, TAMM41 / RFU, KIAA1704 /// LOC100996395 / Fold change vs veh, KIAA1704 /// LOC100996395 / RFU, ING1 / Fold change vs veh, ING1 / RFU, TRMT61B / Fold change vs veh, TRMT61B / RFU, FUBP3 / Fold change vs veh, FUBP3 / RFU, TP53 / Fold change vs veh, TP53 / RFU, TNKS2 / Fold change vs veh, TNKS2 / RFU, ZFP14 / Fold change vs veh, ZFP14 / RFU, ACTR2 / Fold change vs veh, ACTR2 / RFU, PPP3R1 / Fold change vs veh, PPP3R1 / RFU, PIK3R1 / Fold change vs veh, PIK3R1 / RFU, HNRNPA1 / Fold change vs veh, HNRNPA1 / RFU, RNF170 / Fold change vs veh, RNF170 / RFU, ZNF28 / Fold change vs veh, ZNF28 / RFU, RNGTT / Fold change vs veh, RNGTT / RFU, OGT / Fold change vs veh, OGT / RFU, BRD1 / Fold change vs veh, BRD1 / RFU, MARS / Fold change vs veh, MARS / RFU, ZNF655 / Fold change vs veh, ZNF655 / RFU, FAHD1 / Fold change vs veh, FAHD1 / RFU, BDP1 / Fold change vs veh, BDP1 / RFU, LRRCC1 / Fold change vs veh, LRRCC1 / RFU, ARID1A / Fold change vs veh, ARID1A / RFU, ZNF146 / Fold change vs veh, ZNF146 / RFU, ZNF330 / Fold change vs veh, ZNF330 / RFU, GPN3 / Fold change vs veh, GPN3 / RFU, C9orf123 / Fold change vs veh, C9orf123 / RFU, N4BP2L2 / Fold change vs veh, N4BP2L2 / RFU, ARFIP1 / Fold change vs veh, ARFIP1 / RFU, FAM179B / Fold change vs veh, FAM179B / RFU, BCL10 / Fold change vs veh, BCL10 / RFU, UHRF1BP1L / Fold change vs veh, UHRF1BP1L / RFU, BET1 / Fold change vs veh, BET1 / RFU, CNOT2 / Fold change vs veh, CNOT2 / RFU, ZNF268 / Fold change vs veh, ZNF268 / Fold change vs veh, ZNF507 / RFU, DGCR2 / Fold change vs veh, DGCR2 / RFU, WDSUB1 / Fold change vs veh, WDSUB1 / Fold change vs veh, HSP90B1 /// MIR3652 / RFU, ADSS / Fold change vs veh, ADSS / RFU, GK / Fold change vs veh, GK / RFU, ZNF148 / Fold change vs veh, ZNF148 / RFU, TAF9 / Fold change vs veh, TAF9 / RFU, SLC1A5 / Fold change vs veh, SLC1A5 / RFU, SLMO2 / Fold change vs veh, SLMO2 / RFU, ABCC4 / Fold change vs veh, ABCC4 / RFU, LOC101060439 /// RAP1B / Fold change vs veh, LOC101060439 /// RAP1B / RFU, RFX7 / Fold change vs veh, RFX7 / RFU, GTPBP10 / Fold change vs veh, GTPBP10 / RFU, CNEP1R1 / Fold change vs veh, CNEP1R1 / RFU, BIVM-ERCC5 /// ERCC5 / Fold change vs veh, BIVM-ERCC5 /// ERCC5 / RFU, ILF3 / Fold change vs veh, ILF3 / RFU 11762660_at / Fold change /veh 11762660_at / RFU VCAN (11757783_s_at) / Fold change /veh VCAN (11757783_s_at) / RFU DDX43 (11728927_at) / Fold change /veh DDX43 (11728927_at) / RFU KRT8 (11758188_x_at) / Fold change /veh KRT8 (11758188_x_at) / RFU NKD1 (11759106_at) / Fold change /veh NKD1 (11759106_at) / RFU SRD5A1 (11742802_a_at) / Fold change /veh SRD5A1 (11742802_a_at) / RFU TPSAB1 /// TPSB2 (11721975_s_at) / Fold change /veh TPSAB1 /// TPSB2 (11721975_s_at) / RFU GSTM3 (11746129_a_at) / Fold change /veh GSTM3 (11746129_a_at) / RFU IL23R (11737362_x_at) / Fold change /veh IL23R (11737362_x_at) / RFU TMEM51 (11727254_a_at) / Fold change /veh TMEM51 (11727254_a_at) / RFU PIWIL2 (11732686_x_at) / Fold change /veh PIWIL2 (11732686_x_at) / RFU ORM1 (11744905_x_at) / Fold change /veh ORM1 (11744905_x_at) / RFU CCDC152 (11743942_at) / Fold change /veh CCDC152 (11743942_at) / RFU ECM1 (11717891_a_at) / Fold change /veh ECM1 (11717891_a_at) / RFU IL23R (11748794_a_at) / Fold change /veh IL23R (11748794_a_at) / RFU TNFAIP8L3 (11732012_x_at) / Fold change /veh TNFAIP8L3 (11732012_x_at) / RFU MBOAT4 (11741988_at) / Fold change /veh MBOAT4 (11741988_at) / RFU 11764193_at / Fold change /veh 11764193_at / RFU TMEM53 (11763286_at) / Fold change /veh TMEM53 (11763286_at) / RFU MAGEB2 (11727129_at) / Fold change /veh MAGEB2 (11727129_at) / RFU TMEM200A (11744735_a_at) / Fold change /veh TMEM200A (11744735_a_at) / RFU CCDC152 (11751479_a_at) / Fold change /veh CCDC152 (11751479_a_at) / RFU FAM211A (11726209_a_at) / Fold change /veh FAM211A (11726209_a_at) / RFU RGS16 (11746705_a_at) / Fold change /veh RGS16 (11746705_a_at) / RFU VCAN (11755009_s_at) / Fold change /veh VCAN (11755009_s_at) / RFU RHOB (11743442_s_at) / Fold change /veh RHOB (11743442_s_at) / RFU RGS16 (11720943_a_at) / Fold change /veh RGS16 (11720943_a_at) / RFU RGS16 (11720944_at) / Fold change /veh RGS16 (11720944_at) / RFU, VPS4B / Fold change vs veh, VPS4B / RFU, CREB1 / Fold change vs veh, CREB1 / RFU, DNAJC13 / Fold change vs veh, DNAJC13 / RFU, GNAQ / Fold change vs veh, GNAQ / RFU, CDK5R1 / Fold change vs veh, CDK5R1 / RFU, ZRANB3 / Fold change vs veh, ZRANB3 / RFU, CUL4A / Fold change vs veh, CUL4A / RFU, CCNY / Fold change vs veh, CCNY / RFU, UFL1 / Fold change vs veh, UFL1 / RFU, COG3 / Fold change vs veh, COG3 / RFU, DIAPH2 / Fold change vs veh, DIAPH2 / RFU, SKA2 / Fold change vs veh, SKA2 / RFU, AFF3 / Fold change vs veh, AFF3 / RFU, LMF1 / Fold change vs veh, LMF1 / RFU, IPO11 / Fold change vs veh, IPO11 / RFU, DFFB / Fold change vs veh, DFFB / RFU, FOXP1 / Fold change vs veh, FOXP1 / RFU, CARD8 / Fold change vs veh, CARD8 / RFU, STRN3 / Fold change vs veh, STRN3 / RFU, ADK / Fold change vs veh, ADK / RFU, RASSF2 / Fold change vs veh, RASSF2 / RFU, WIPF1 / Fold change vs veh, WIPF1 / RFU, LARP1B / Fold change vs veh, LARP1B / RFU, RASA1 / Fold change vs veh, RASA1 / RFU, RB1 / Fold change vs veh, RB1 / RFU, PPFIA1 / Fold change vs veh, PPFIA1 / RFU, MAT2A / Fold change vs veh, MAT2A / RFU, CCT5 / Fold change vs veh, CCT5 / RFU, WDR92 / Fold change vs veh, WDR92 / RFU, CUX1 / Fold change vs veh, CUX1 / RFU, TTC7A / Fold change vs veh, TTC7A / RFU, TMEM135 / Fold change vs veh, TMEM135 / RFU, DEPTOR / Fold change vs veh, DEPTOR / RFU, CPM / Fold change vs veh, CPM / RFU, DNAJB6 / Fold change vs veh, DNAJB6 / RFU, CACNA2D3 / Fold change vs veh, CACNA2D3 / RFU, DTX4 / Fold change vs veh, DTX4 / RFU, TFCP2 / Fold change vs veh, TFCP2 / RFU, GMCL1 /// GMCL1P1 / Fold change vs veh, GMCL1 /// GMCL1P1 / RFU, AEBP2 / Fold change vs veh, AEBP2 / RFU, SNHG1 /// SNORD22 /// SNORD25 /// SNORD26 /// SNORD27 /// SNORD28 /// SNORD29 /// SNORD31 / Fold change vs veh, SNHG1 /// SNORD22 /// SNORD25 /// SNORD26 /// SNORD27 /// SNORD28 /// SNORD29 /// SNORD31 / Fold change (Aza/veh), C12orf56 (ProbeSet 11735607_a_at) / Fold change (ACY-1035/veh), C12orf56 (ProbeSet 11735607_a_at) / Fold change (Aza/veh), FGFR1OP (ProbeSet 11751329_s_at) / Fold change (ACY-1035/veh), FGFR1OP (ProbeSet 11751329_s_at) / Fold change (Aza/veh), VPS36 (ProbeSet 11739960_a_at) / Fold change (ACY-1035/veh), VPS36 (ProbeSet 11739960_a_at) / RFU SYPL1 (11715823_x_at) / Fold change /veh SYPL1 (11715823_x_at) / RFU IGFBP7 (11715501_s_at) / Fold change /veh IGFBP7 (11715501_s_at) / RFU REEP3 (11722064_at) / Fold change /veh REEP3 (11722064_at) / RFU IGLL1 (11728026_x_at) / Fold change /veh IGLL1 (11728026_x_at): dose or concentration left out as unconfirmed
Details: ProbeSet 11727958_a_at; LIST B

Nc1ccc(-c2cccs2)cc1NC(=O)c1ccc2c(c1)cc(C1CC1)n2CCN1CCOCC1 [ACY-1035]
Fold change vs veh, ING1: 1.02
